According to paper PMC10380348 (2023):

Tested on: MnG4C1 (DNA, G4) AGGGGGGGAGTTAGGGCGCACGTTAGGGGTGCTATTAGGG
Experiment: ThT fluorescence light-up, 492 nm
Details: 50 mM Tris-HCl pH 7.5, room temperature, 3 µM ThT, 1 mM aptamer

- binding (K+ 0-30 mM): yes
- binding (Mn2+ 0-100 µM): yes
SMILES: Cc1ccc2c(c1)sc(-c1ccc(N(C)C)cc1)[n+]2C
